Molecules are shown by their SMILES.

Test [1] concerns the target T1, LdUfsp (recombinant Ufsp, rLdUfsp) (Leishmania donovani, UniProt E9BRI1).
T1 construct: gene LdCL_340047700; partial ORF 427-1518 bp (about codons 143-506) in pEXP5-CT-Topo, E. coli BL21-pLysS, native purification; 43 and 39 kDa bands; L. infantum homolog is LinJ.34.3830
The experiment in a line: FRET cleavage assay with YFP-Ufm1-ECFP. It counts as biochemical. The note with it: 0.1, 1, 10 µg/ml; 250 nM substrate; pH 7.5, 37 °C, 60 min.

Test [2] addresses T1, LdUfsp (recombinant Ufsp, rLdUfsp). In words: biolayer interferometry (Octet, streptavidin sensor). The test is classed as binding. The note with it: biotinylated protein immobilised.

T1 sequence (E9BRI1 entry or part of it): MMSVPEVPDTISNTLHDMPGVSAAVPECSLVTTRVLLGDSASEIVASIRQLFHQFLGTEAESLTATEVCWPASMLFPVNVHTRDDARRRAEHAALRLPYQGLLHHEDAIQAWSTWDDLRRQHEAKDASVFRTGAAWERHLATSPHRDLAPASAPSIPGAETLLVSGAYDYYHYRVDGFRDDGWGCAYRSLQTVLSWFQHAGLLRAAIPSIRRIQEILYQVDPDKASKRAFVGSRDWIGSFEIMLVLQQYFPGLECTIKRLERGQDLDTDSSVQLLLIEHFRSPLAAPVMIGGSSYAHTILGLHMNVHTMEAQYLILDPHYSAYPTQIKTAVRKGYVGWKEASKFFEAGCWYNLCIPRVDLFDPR

For `C[C@@H]1[C@H](O)[C@@H](C)/C=C/C=C/C=C/C=C/C=C/C=C/C=C/[C@H](O[C@@H]2O[C@H](C)[C@@H](O)[C@H](N)[C@@H]2O)C[C@@H]2O[C@](O)(C[C@@H](O)C[C@@H](O)[C@H](O)CC[C@@H](O)C[C@@H](O)CC(=O)O[C@H]1C)C[C@H](O)[C@H]2C(=O)O` [Amphotericin B], the “% Ufm1 processing activity (Δ530, % of 20 mM N-ethyl maleimide)” value in test [1] is “Amphotericin B showed inhibitory effects on the Ufm1 processing activity”. Moreover, the “biolayer interferometry (Octet, streptavidin sensor)” value in test [2] was “Results showed that Amphotericin B can bind to the biotinylated Ufsp protein”.

Source of the values: publication PMC3930514, “Deletion of Ubiquitin Fold Modifier Protein Ufm1 Processing Peptidase Ufsp in L. donovani Abolishes Ufm1 Processing and Alters Pathogenesis” (PLoS Neglected Tropical Diseases, 2014).
